Assay results as given in patent US20160215305A1, “Process of Fermenting A Lignocellulosic Biomass” (priority 2015, published 2016).

Test system: S. cerevisiae
Test: Batch fermentation of amino acid detoxified loblolly pine hydrolysates by Baker yeast
Type: cell-based, Saccharomyces cerevisiae
Settings: pH 6.0, 60° C.; for CEtOH, ethanol final concentration at 48 h / CHMF, percentage of HMF consumed at 48 h / QEtOH, volumetric ethanol productivity in the first 6 h / RG, glucose consumption rate in the first 6 h / RM, mannose consumption rate in the first 6 h / YEtOH, ethanol yield from total glucose and mannose at 48 h: hydrolysates detoxified with amino acid 0.2% w/v, 2 hours
Excerpt: Loblolly pine (Pinus taeda) wood chips (1.0×1.0 cm, L×W) were collected by Forest Products Laboratory at Auburn University, located in Auburn, Ala. Dilute acid pretreatment was used to produce biomass hydrolysates in a 4.0 L Parr batch reactor (Parr Instrument Co., Moline, Ill.) as previously described (Lai, C. H., Tu, M. B., Li, M., Yu, S. Y. 2014. Remarkable solvent and extractable lignin effects on enzymatic digestibility of organosolv pretreated hardwood. Bioresource Technology, 156, 92-98). Briefly, wood chips (400 grams, dry weight) were soaked in 1% (w/w) sulfuric acid overnight (7:1 liquor/solid ratio) prior to the pretreatment, and then loaded into a reactor and treated at 170° C. for 60 minutes.
To achieve higher ethanol titer in fermentation, loblolly pine hydrolysates were concentrated to approximately one-third of its original volume using a rotary evaporator (IKA RV10 basic) at 40° C. and 60 rotations per minute (rpm). The hydrolysates were first adjusted to pH 4.0 before evaporation. After the concentration, the sugar contents of the hydrolysates were analyzed by HPLC.
[…] The detoxification experiments were performed in a 250 mL flask and placed in a temperature-controlled water batch.
Baker yeast (Fleischmann's), S. cerevisiae, was used for all the fermentation experiments in this study. The yeast was maintained on YDP medium containing (g/L): 20 glucose, 20 peptone, 10 yeast extract and 20 agar. Isolated colony was grown in YDP liquid medium overnight and harvested as fermentation inoculum. The yeast concentration was measured using an UV-vis spectrophotometer. Inoculum of 2.0 g/L was used for all fermentation experiments.
Batch fermentation was carried out in 125 mL serum bottles containing 50 mL broths (untreated or detoxified hydrolysates, untreated or detoxified cinnamaldehyde sugar solution) without any additional nutrient supplement. All the fermentation broths were adjusted to pH 6 with NaOH or H2SO4 and sterilized by passing 0.2 μm sterile filters. After inoculation, the serum bottle was sealed with rubber stopper and aluminum seal, and equipped with cannulas for CO2 release. All fermentation experiments were incubated at 30° C., spun at 150 rpm in a shaker (E24, New Brunswick Scientific). Aliquots of samples were withdrawn at 0, 1, 3, 6, 9, 12, 24, 36 and 48 hours for the time course analysis of both starting material and products. Fermentation was carried out in duplicate. The volumetric ethanol productivity and initial consumption rate of glucose (RG) and mannose (RM) was calculated based on the sugar consumed in the first 6 h of fermentation as described previously (Cao, D. X., Tu, M. B., Xie, R., Li, J., Wu, Y. N., Adhikari, S. 2014. Inhibitory Activity of Carbonyl Compounds on Alcoholic Fermentation by Saccharomyces cerevisiae. Journal of Agricultural and Food Chemistry, 62(4), 918-926).
Ethanol, acetic acid, levulinic acid, formic acid, furfural and HMF were analyzed using an Aminex HPX-87H column (300×7.8 mm) with a refractive index detector. The elution conditions were column temperature of 45° C. and flow rate of 0.6 ml/min with 5.0 mM H2SO4 as the mobile phase in a 60 min isocratic run.

C[C@H](N)C(=O)O [Alanine, alanine]
CEtOH, ethanol final concentration at 48 h: 2.14 ± 0.01 g/L | CHMF, percentage of HMF consumed at 48 h: 11.03 ± 1.64% | QEtOH, volumetric ethanol productivity in the first 6 h: 0.28 ± 0.00 g/L/h | RG, glucose consumption rate in the first 6 h: 0.21 ± 0.02 g/L/h | RM, mannose consumption rate in the first 6 h: 0.44 ± 0.07 g/L/h | YEtOH, ethanol yield from total glucose and mannose at 48 h: 0.04 ± 0.00 g/g

N=C(N)NCCC[C@H](N)C(=O)O [Arginine, arginine]
CEtOH, ethanol final concentration at 48 h: 2.62 ± 0.03 g/L | CHMF, percentage of HMF consumed at 48 h: 12.69 ± 0.27% | QEtOH, volumetric ethanol productivity in the first 6 h: 0.34 ± 0.01 g/L/h | RG, glucose consumption rate in the first 6 h: 0.29 ± 0.02 g/L/h | RM, mannose consumption rate in the first 6 h: 0.59 ± 0.07 g/L/h | YEtOH, ethanol yield from total glucose and mannose at 48 h: 0.05 ± 0.00 g/g

NC(=O)C[C@H](N)C(=O)O [Asparagine, asparagine]
CEtOH, ethanol final concentration at 48 h: 11.18 ± 0.15 g/L | QEtOH, volumetric ethanol productivity in the first 6 h: 0.58 ± 0.01 g/L/h | RG, glucose consumption rate in the first 6 h: 0.65 ± 0.01 g/L/h | RM, mannose consumption rate in the first 6 h: 0.87 ± 0.10 g/L/h | CEtOH, ethanol final concentration at 48 h (listed as asparagine): 11.18 g/L | RG, glucose consumption rate in the first 6 h (listed as asparagine): 0.65 g/L/h | RM, mannose consumption rate in the first 6 h (listed as asparagine): 0.87 g/L/h

N[C@@H](CC(=O)O)C(=O)O [Aspartate, aspartate]
CEtOH, ethanol final concentration at 48 h: 3.86 ± 0.18 g/L | CHMF, percentage of HMF consumed at 48 h: 16.27 ± 0.30% | QEtOH, volumetric ethanol productivity in the first 6 h: 0.47 ± 0.00 g/L/h | RG, glucose consumption rate in the first 6 h: 0.43 ± 0.02 g/L/h | RM, mannose consumption rate in the first 6 h: 0.90 ± 0.01 g/L/h | YEtOH, ethanol yield from total glucose and mannose at 48 h: 0.07 ± 0.00 g/g

N[C@@H](CCC(=O)O)C(=O)O [Glutamate, glutamate]
CEtOH, ethanol final concentration at 48 h: 3.63 ± 0.23 g/L | CHMF, percentage of HMF consumed at 48 h: 15.40 ± 0.72% | QEtOH, volumetric ethanol productivity in the first 6 h: 0.41 ± 0.01 g/L/h | RG, glucose consumption rate in the first 6 h: 0.34 ± 0.02 g/L/h | RM, mannose consumption rate in the first 6 h: 0.56 ± 0.03 g/L/h | YEtOH, ethanol yield from total glucose and mannose at 48 h: 0.07 ± 0.00 g/g

NC(=O)CC[C@H](N)C(=O)O [Glutamine, glutamine]
CEtOH, ethanol final concentration at 48 h: 3.52 ± 0.06 g/L | CHMF, percentage of HMF consumed at 48 h: 13.38 ± 0.99% | QEtOH, volumetric ethanol productivity in the first 6 h: 0.40 ± 0.00 g/L/h | RG, glucose consumption rate in the first 6 h: 0.38 ± 0.02 g/L/h | RM, mannose consumption rate in the first 6 h: 0.73 ± 0.01 g/L/h | YEtOH, ethanol yield from total glucose and mannose at 48 h: 0.06 ± 0.01 g/g

N[C@@H](Cc1c[nH]cn1)C(=O)O [Histidine, histidine]
CEtOH, ethanol final concentration at 48 h: 23.07 ± 0.35 g/L | QEtOH, volumetric ethanol productivity in the first 6 h: 0.78 ± 0.00 g/L/h | RG, glucose consumption rate in the first 6 h: 0.94 ± 0.00 g/L/h | RM, mannose consumption rate in the first 6 h: 1.02 ± 0.01 g/L/h | YEtOH, ethanol yield from total glucose and mannose at 48 h: 0.42 ± 0.01 g/g | CEtOH, ethanol final concentration at 48 h (listed as histidine): 23.07 g/L | RG, glucose consumption rate in the first 6 h (listed as histidine): 0.94 g/L/h | RM, mannose consumption rate in the first 6 h (listed as histidine): 1.02 g/L/h | YEtOH, ethanol yield from total glucose and mannose at 48 h (listed as histidine): 0.42 g/g | sugar consumption rate (glucose and mannose) less than those from cysteine detoxification (2 hours detoxification): 50%

CC[C@H](C)[C@H](N)C(=O)O [Isoleucine, isoleucine]
CEtOH, ethanol final concentration at 48 h: 5.03 ± 1.46 g/L | CHMF, percentage of HMF consumed at 48 h: 17.36 ± 3.50% | QEtOH, volumetric ethanol productivity in the first 6 h: 0.44 ± 0.08 g/L/h | RG, glucose consumption rate in the first 6 h: 0.37 ± 0.02 g/L/h | RM, mannose consumption rate in the first 6 h: 0.66 ± 0.06 g/L/h | YEtOH, ethanol yield from total glucose and mannose at 48 h: 0.09 ± 0.03 g/g

CC(C)C[C@H](N)C(=O)O [Leucine, leucine]
CEtOH, ethanol final concentration at 48 h: 2.83 ± 0.19 g/L | CHMF, percentage of HMF consumed at 48 h: 12.84 ± 1.32% | QEtOH, volumetric ethanol productivity in the first 6 h: 0.34 ± 0.01 g/L/h | RG, glucose consumption rate in the first 6 h: 0.27 ± 0.04 g/L/h | RM, mannose consumption rate in the first 6 h: 0.64 ± 0.12 g/L/h | YEtOH, ethanol yield from total glucose and mannose at 48 h: 0.05 ± 0.00 g/g

NCCCC[C@H](N)C(=O)O [Lysine, lysine]
CEtOH, ethanol final concentration at 48 h: 14.40 ± 0.57 g/L | QEtOH, volumetric ethanol productivity in the first 6 h: 0.72 ± 0.01 g/L/h | RG, glucose consumption rate in the first 6 h: 0.80 ± 0.06 g/L/h | RM, mannose consumption rate in the first 6 h: 1.09 ± 0.13 g/L/h | CEtOH, ethanol final concentration at 48 h (listed as lysine): 14.40 g/L | RG, glucose consumption rate in the first 6 h (listed as lysine): 0.80 g/L/h | RM, mannose consumption rate in the first 6 h (listed as lysine): 1.09 g/L/h

CSCC[C@H](N)C(=O)O [Methionine, methionine]
CEtOH, ethanol final concentration at 48 h: 3.11 ± 0.02 g/L | CHMF, percentage of HMF consumed at 48 h: 12.78 ± 0.10% | QEtOH, volumetric ethanol productivity in the first 6 h: 0.31 ± 0.00 g/L/h | RG, glucose consumption rate in the first 6 h: 0.27 ± 0.01 g/L/h | RM, mannose consumption rate in the first 6 h: 0.63 ± 0.02 g/L/h | YEtOH, ethanol yield from total glucose and mannose at 48 h: 0.06 ± 0.00 g/g

N[C@@H](Cc1ccccc1)C(=O)O [Phenylalanine, phenylalanine]
CEtOH, ethanol final concentration at 48 h: 1.87 ± 0.02 g/L | CHMF, percentage of HMF consumed at 48 h: 12.69 ± 1.12% | QEtOH, volumetric ethanol productivity in the first 6 h: 0.28 ± 0.00 g/L/h | RG, glucose consumption rate in the first 6 h: 0.24 ± 0.01 g/L/h | RM, mannose consumption rate in the first 6 h: 0.56 ± 0.01 g/L/h | YEtOH, ethanol yield from total glucose and mannose at 48 h: 0.03 ± 0.00 g/g

O=C(O)[C@@H]1CCCN1 [Proline, proline]
CEtOH, ethanol final concentration at 48 h: 3.12 ± 0.13 g/L | CHMF, percentage of HMF consumed at 48 h: 13.35 ± 1.05% | QEtOH, volumetric ethanol productivity in the first 6 h: 0.33 ± 0.00 g/L/h | RG, glucose consumption rate in the first 6 h: 0.27 ± 0.05 g/L/h | RM, mannose consumption rate in the first 6 h: 0.67 ± 0.18 g/L/h | YEtOH, ethanol yield from total glucose and mannose at 48 h: 0.06 ± 0.00 g/g

N[C@@H](CO)C(=O)O [Serine, serine]
CEtOH, ethanol final concentration at 48 h: 3.87 ± 0.08 g/L | CHMF, percentage of HMF consumed at 48 h: 15.66 ± 0.11% | QEtOH, volumetric ethanol productivity in the first 6 h: 0.45 ± 0.00 g/L/h | RG, glucose consumption rate in the first 6 h: 0.38 ± 0.00 g/L/h | RM, mannose consumption rate in the first 6 h: 0.65 ± 0.13 g/L/h | YEtOH, ethanol yield from total glucose and mannose at 48 h: 0.07 ± 0.00 g/g

C[C@@H](O)[C@H](N)C(=O)O [Threonine, threonine]
CEtOH, ethanol final concentration at 48 h: 3.96 ± 0.13 g/L | CHMF, percentage of HMF consumed at 48 h: 16.19 ± 0.87% | QEtOH, volumetric ethanol productivity in the first 6 h: 0.41 ± 0.01 g/L/h | RG, glucose consumption rate in the first 6 h: 0.36 ± 0.02 g/L/h | RM, mannose consumption rate in the first 6 h: 0.67 ± 0.03 g/L/h | YEtOH, ethanol yield from total glucose and mannose at 48 h: 0.07 ± 0.00 g/g
